Experimental data as given in US20040181343A1, “Computer program products and systems for rapidly changing the solution environment around sensors” (Cellectricon AB, priority 2002, published 2004).

Tested on: PC-12 cell
Conditions: cell-scanning speed 250 μm/s
From the text: The flow rate was 3.24 mm/s and the cell scanning speed was 250 μm/s.
In these applications, as discussed above, both the flow rate of the fluids exiting the microchannels and the scan rate of the patch clamped cell are important. […] The width of each microchannel is 100 μm, the thickness is 50 μm, and the intermicrochannel spacing is 25 μm. The procedure used for fabricating the microchannels and for patch clamping are identical to that described in Example 2 (see above). The patch clamped cell used was a PC-12 cell, which was placed between 10 to 20 micrometers away from the outlets of the microchannels. Microchannels 1, 3, 5 and 7 were filled with PBS buffer, while microchannels 2, 4 and 6 were filled with acetylcholine. The flow rate of the fluid streams was 6.8 mm/s.
In a 7-microchannel structure, microchannels 1, 3, 5 and 7 were filled with PBS buffer, whereas microchannels 2, 4, and 6 were filled with 1 μM, 12 μM, and 200 μM nicotine, respectively. The flow rate used was […] and the cell-scanning speed was 250 μm/s. The patch-clamped cell was placed between 10 to 20 μm away from the outlet of the microchannel.

CN1CCCC1c1cccnc1 (stereo not drawn) [nicotine]
Whole-cell current response (1 μM nicotine): barely discernible | Whole-cell current peak (12 μM nicotine): detected with good signal-to-noise ratio | Current peak at 200 μM relative to the peak for 12 μM (200 μM nicotine versus 12 μM): 15 to 20 times
